What was measured:
Test in all cases: relative viability (nuclei count vs DMSO), 5 days (fraction); higher = more cells survive
NCI-H647 = system: NCI-H647
How it was run: (§1)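 Dosing by pin tool came one day after lung cancer cell lines were seeded in 1536-well plates, using either one drug or a fixed anchor-drug dose plus five library-drug doses (not always all listed) in √10 steps. After 5 days, nuclei were counted on 4× images. Relative viability is treated-well nuclei count divided by vehicle-well nuclei count, and values are medians of duplicate plates.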

RERF-LC-KJ = system: RERF-LC-KJ
How it was run: as §1

NCI-H596 = system: NCI-H596
How it was run: as §1

LCLC-103H = system: LCLC-103H
How it was run: as §1

COR-L23 = system: COR-L23
How it was run: as §1

HOP-62 = system: HOP-62
How it was run: as §1

A-427 = system: A-427
How it was run: as §1

NCI-H1975 = system: NCI-H1975
How it was run: as §1

NCI-H2085 = system: NCI-H2085
How it was run: as §1

NCI-H1563 = system: NCI-H1563
How it was run: as §1

LXF-289 = system: LXF-289
How it was run: as §1

NCI-H2342 = system: NCI-H2342
How it was run: as §1

COR-L 105 = system: COR-L 105
How it was run: as §1

NCI-H1395 = system: NCI-H1395
How it was run: as §1

NCI-H2087 = system: NCI-H2087
How it was run: as §1

NCI-H1651 = system: NCI-H1651
How it was run: as §1

NCI-H2023 = system: NCI-H2023
How it was run: as §1

NCI-H3122 = system: NCI-H3122
How it was run: as §1

NCI-H2170 = system: NCI-H2170
How it was run: as §1

CAL-12T = system: CAL-12T
How it was run: as §1

NCI-H650 = system: NCI-H650
How it was run: as §1

SK-MES-1 = system: SK-MES-1
How it was run: as §1

Compound `COCC1(CO)C(=O)C2CCN1CC2` (stereo not drawn) [PRIMA-1MET] + N=C(N)NC(=N)NCCc1ccccc1 [Phenformin] (partner 250 µM) has a relative viability (NCI-H647; first compound 0.2 µM) of 0.405, a relative viability (NCI-H647; first compound 0.6325 µM) of 0.546 and a relative viability (NCI-H647; first compound 2 µM) of 0.453. For the same compound, the relative viability (NCI-H647; first compound 6.325 µM) was 0.514, the relative viability (NCI-H647; first compound 20 µM) was 0.0596 and the relative viability (RERF-LC-KJ; first compound 0.2 µM) was 0.493. The relative viability (RERF-LC-KJ; first compound 0.6325 µM) was 0.432, the relative viability (RERF-LC-KJ; first compound 2 µM) was 0.449 and the relative viability (RERF-LC-KJ; first compound 6.325 µM) was 0.52. It also gave a relative viability (RERF-LC-KJ; first compound 20 µM) of 0.427, a relative viability (NCI-H596; first compound 0.2 µM) of 0.752 and a relative viability (NCI-H596; first compound 0.6325 µM) of 0.794. It also gave a relative viability (NCI-H596; first compound 2 µM) of 0.622, a relative viability (NCI-H596; first compound 6.325 µM) of 0.891 and a relative viability (NCI-H596; first compound 20 µM) of 0.693. The relative viability (LCLC-103H; first compound 0.2 µM) was 0.354, the relative viability (LCLC-103H; first compound 0.6325 µM) was 0.283 and the relative viability (LCLC-103H; first compound 2 µM) was 0.315. It also gave a relative viability (LCLC-103H; first compound 6.325 µM) of 0.355, a relative viability (LCLC-103H; first compound 20 µM) of 0.362 and a relative viability (COR-L23; first compound 0.2 µM) of 0.554. It also gave a relative viability (COR-L23; first compound 0.6325 µM) of 0.413, a relative viability (COR-L23; first compound 2 µM) of 0.477 and a relative viability (COR-L23; first compound 6.325 µM) of 0.343. It also gave a relative viability (COR-L23; first compound 20 µM) of 0.0169, a relative viability (HOP-62; first compound 0.2 µM) of 0.668 and a relative viability (HOP-62; first compound 0.6325 µM) of 0.686. The relative viability (HOP-62; first compound 2 µM) was 0.648, the relative viability (HOP-62; first compound 6.325 µM) was 0.694 and the relative viability (HOP-62; first compound 20 µM) was 0.311. The relative viability (A-427; first compound 0.2 µM) was 0.221, the relative viability (A-427; first compound 0.6325 µM) was 0.294 and the relative viability (A-427; first compound 2 µM) was 0.304. It also gave a relative viability (A-427; first compound 6.325 µM) of 0.281, a relative viability (A-427; first compound 20 µM) of 0.133 and a relative viability (NCI-H1975; first compound 0.2 µM) of 0.41. For the same compound, the relative viability (NCI-H1975; first compound 0.6325 µM) was 0.4, the relative viability (NCI-H1975; first compound 2 µM) was 0.381 and the relative viability (NCI-H1975; first compound 6.325 µM) was 0.42. It also gave a relative viability (NCI-H1975; first compound 20 µM) of 0.194, a relative viability (NCI-H2085; first compound 0.2 µM) of 0.727 and a relative viability (NCI-H2085; first compound 0.6325 µM) of 0.62. It also gave a relative viability (NCI-H2085; first compound 2 µM) of 0.432, a relative viability (NCI-H2085; first compound 6.325 µM) of 0.449 and a relative viability (NCI-H2085; first compound 20 µM) of 0.272. The relative viability (NCI-H1563; first compound 0.2 µM) was 0.686, the relative viability (NCI-H1563; first compound 0.6325 µM) was 0.673 and the relative viability (NCI-H1563; first compound 2 µM) was 0.668. For the same compound, the relative viability (NCI-H1563; first compound 6.325 µM) was 0.719, the relative viability (NCI-H1563; first compound 20 µM) was 0.302 and the relative viability (LXF-289; first compound 0.2 µM) was 0.491. For the same compound, the relative viability (LXF-289; first compound 0.6325 µM) was 0.482, the relative viability (LXF-289; first compound 2 µM) was 0.428 and the relative viability (LXF-289; first compound 6.325 µM) was 0.513. The relative viability (LXF-289; first compound 20 µM) was 0.456, the relative viability (NCI-H2342; first compound 0.2 µM) was 0.58 and the relative viability (NCI-H2342; first compound 0.6325 µM) was 0.667. It also gave a relative viability (NCI-H2342; first compound 2 µM) of 0.462, a relative viability (NCI-H2342; first compound 6.325 µM) of 0.608 and a relative viability (NCI-H2342; first compound 20 µM) of 0.543. For the same compound, the relative viability (COR-L 105; first compound 0.2 µM) was 0.547, the relative viability (COR-L 105; first compound 0.6325 µM) was 0.438 and the relative viability (COR-L 105; first compound 2 µM) was 0.373. For the same compound, the relative viability (COR-L 105; first compound 6.325 µM) was 0.459, the relative viability (COR-L 105; first compound 20 µM) was 0.124 and the relative viability (NCI-H1395; first compound 0.2 µM) was 0.469. For the same compound, the relative viability (NCI-H1395; first compound 0.6325 µM) was 0.414, the relative viability (NCI-H1395; first compound 2 µM) was 0.416 and the relative viability (NCI-H1395; first compound 6.325 µM) was 0.441. It also gave a relative viability (NCI-H1395; first compound 20 µM) of 0.395, a relative viability (NCI-H2087; first compound 0.2 µM) of 0.315 and a relative viability (NCI-H2087; first compound 0.6325 µM) of 0.332. It also gave a relative viability (NCI-H2087; first compound 2 µM) of 0.494, a relative viability (NCI-H2087; first compound 6.325 µM) of 0.463 and a relative viability (NCI-H2087; first compound 20 µM) of 0.168. It also gave a relative viability (NCI-H1651; first compound 0.2 µM) of 0.297, a relative viability (NCI-H1651; first compound 0.6325 µM) of 0.244 and a relative viability (NCI-H1651; first compound 2 µM) of 0.293. For the same compound, the relative viability (NCI-H1651; first compound 6.325 µM) was 0.377, the relative viability (NCI-H1651; first compound 20 µM) was 0.339 and the relative viability (NCI-H2023; first compound 0.2 µM) was 0.453. The relative viability (NCI-H2023; first compound 0.6325 µM) was 0.447, the relative viability (NCI-H2023; first compound 2 µM) was 0.398 and the relative viability (NCI-H2023; first compound 6.325 µM) was 0.405. For the same compound, the relative viability (NCI-H2023; first compound 20 µM) was 0.284, the relative viability (NCI-H3122; first compound 0.2 µM) was 0.367 and the relative viability (NCI-H3122; first compound 0.6325 µM) was 0.35. For the same compound, the relative viability (NCI-H3122; first compound 6.325 µM) was 0.392, the relative viability (NCI-H3122; first compound 20 µM) was 0.343 and the relative viability (NCI-H2170; first compound 0.2 µM) was 0.418. The relative viability (NCI-H2170; first compound 0.6325 µM) was 0.416, the relative viability (NCI-H2170; first compound 2 µM) was 0.38 and the relative viability (NCI-H2170; first compound 6.325 µM) was 0.405. It also gave a relative viability (NCI-H2170; first compound 20 µM) of 0.376, a relative viability (CAL-12T; first compound 0.2 µM) of 0.52 and a relative viability (CAL-12T; first compound 0.6325 µM) of 0.592. It also gave a relative viability (CAL-12T; first compound 2 µM) of 0.586, a relative viability (CAL-12T; first compound 6.325 µM) of 0.519 and a relative viability (CAL-12T; first compound 20 µM) of 0.0696. The relative viability (NCI-H650; first compound 0.2 µM) was 0.595, the relative viability (NCI-H650; first compound 2 µM) was 0.433 and the relative viability (NCI-H650; first compound 6.325 µM) was 0.482. For the same compound, the relative viability (NCI-H650; first compound 20 µM) was 0.438, the relative viability (SK-MES-1; first compound 0.2 µM) was 0.724 and the relative viability (SK-MES-1; first compound 0.6325 µM) was 0.731. The relative viability (SK-MES-1; first compound 2 µM) was 0.722, the relative viability (SK-MES-1; first compound 6.325 µM) was 0.663 and the relative viability (SK-MES-1; first compound 20 µM) was 0.615.
